Measured values as given in ChEMBL document CHEMBL1149934, “(N-acyl-N-alkyl)glycyl borolysine analogs: A new class of potent thrombin inhibitors” (Bioorg Med Chem Lett, 1996).

Columns and labels:
[1] = target: T1, Prothrombin (Homo sapiens, UniProt P00734); experiment: In vitro for inhibition of thrombin.
[2] = target: Tissue-type plasminogen activator (Homo sapiens, UniProt P00750); experiment: Compound was tested in vitro for inhibition of tissue plasminogen activator
[3] = target: Plasminogen (Homo sapiens, UniProt P00747); experiment: In vitro for inhibition of plasmin
Chain of Plasminogen (P00747 97-580 limits assumed): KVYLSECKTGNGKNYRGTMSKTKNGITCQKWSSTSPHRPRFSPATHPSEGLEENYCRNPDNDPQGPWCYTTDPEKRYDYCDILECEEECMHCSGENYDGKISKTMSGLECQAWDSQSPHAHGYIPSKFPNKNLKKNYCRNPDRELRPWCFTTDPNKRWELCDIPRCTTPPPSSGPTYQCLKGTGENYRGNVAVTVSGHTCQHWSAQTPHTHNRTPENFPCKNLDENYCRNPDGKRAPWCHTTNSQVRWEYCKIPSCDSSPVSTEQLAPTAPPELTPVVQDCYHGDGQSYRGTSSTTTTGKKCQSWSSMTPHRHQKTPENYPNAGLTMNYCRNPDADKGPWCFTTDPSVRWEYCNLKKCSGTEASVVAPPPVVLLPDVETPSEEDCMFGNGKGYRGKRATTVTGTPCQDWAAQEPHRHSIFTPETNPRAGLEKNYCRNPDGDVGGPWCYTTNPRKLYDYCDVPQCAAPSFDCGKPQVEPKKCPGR
Chain of Plasminogen (P00747 581-810 limits assumed): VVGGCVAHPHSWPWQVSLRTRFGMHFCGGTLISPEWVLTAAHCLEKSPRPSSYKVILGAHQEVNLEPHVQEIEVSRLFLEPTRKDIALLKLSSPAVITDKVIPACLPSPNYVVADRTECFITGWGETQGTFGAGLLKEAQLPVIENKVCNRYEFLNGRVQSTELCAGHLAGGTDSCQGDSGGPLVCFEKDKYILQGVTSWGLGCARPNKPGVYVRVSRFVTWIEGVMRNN

[4] = target: Serine protease 1 (Homo sapiens, UniProt P07477); experiment: Compound was tested in vitro for inhibition of trypsin
Chain of Serine protease 1 (P07477 whole entry): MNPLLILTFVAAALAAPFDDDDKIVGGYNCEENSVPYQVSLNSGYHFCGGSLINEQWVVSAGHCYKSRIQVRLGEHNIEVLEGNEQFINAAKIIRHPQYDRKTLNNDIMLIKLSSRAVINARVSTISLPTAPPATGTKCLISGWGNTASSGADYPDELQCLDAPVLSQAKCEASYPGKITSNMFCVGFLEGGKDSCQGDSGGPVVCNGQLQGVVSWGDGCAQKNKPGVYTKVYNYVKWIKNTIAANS

[5] = target: T1, Prothrombin; experiment: Compound was tested in vitro for inhibition of thrombin

Chain of Tissue-type plasminogen activator (P00750 whole entry): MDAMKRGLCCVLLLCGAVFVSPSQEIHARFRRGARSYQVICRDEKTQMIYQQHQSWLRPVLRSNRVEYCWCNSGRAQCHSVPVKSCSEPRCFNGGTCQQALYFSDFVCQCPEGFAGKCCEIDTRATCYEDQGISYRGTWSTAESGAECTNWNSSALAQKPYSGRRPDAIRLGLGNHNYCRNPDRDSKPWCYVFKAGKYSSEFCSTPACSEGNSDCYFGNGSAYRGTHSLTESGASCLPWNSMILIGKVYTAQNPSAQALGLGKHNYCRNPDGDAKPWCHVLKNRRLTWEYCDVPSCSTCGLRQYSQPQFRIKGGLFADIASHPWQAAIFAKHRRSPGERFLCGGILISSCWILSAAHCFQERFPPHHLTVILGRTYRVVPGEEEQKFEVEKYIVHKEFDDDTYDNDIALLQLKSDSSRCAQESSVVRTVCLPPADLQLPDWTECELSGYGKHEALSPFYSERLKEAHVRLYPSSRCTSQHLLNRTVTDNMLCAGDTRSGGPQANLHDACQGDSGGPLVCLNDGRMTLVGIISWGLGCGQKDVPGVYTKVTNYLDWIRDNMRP

Row | Compound | Ki [1] [nM] | Ki [2] [nM] | Ki [3] [nM] | Ki [4] [nM] | IC50 [5] [nM]
1 | CN(CC(=O)N[C@@H](CCCCN)B(O)O)C(=O)Cc1ccccc1 | 16 | – | – | – | –
2 | NCCCC[C@H](NC(=O)CN(Cc1ccccc1)C(=O)CCc1ccccc1)B(O)O | 4.68 | – | – | – | –
3 | NCCCC[C@H](NC(=O)CN(C(=O)CCc1ccccc1)c1ccccc1)B(O)O | 1.4 | 280 | 230 | – | –
4 | CC(=O)N[C@H](Cc1ccccc1)C(=O)N1CCC[C@H]1C(=O)N[C@@H](CCCN=C(N)N)B(O)O | – | 5.7 | 5.1 | 0.045 | –
5 | CN(CC(=O)N[C@@H](CCCCN)B(O)O)C(=O)c1ccccc1 | 123 | – | – | – | –
6 | NCCCC[C@H](NC(=O)CNC(=O)CCc1ccccc1)B(O)O | – | – | – | – | 90000
7 | CN=C(N)NCCC[C@H](NC(=O)CN(C)C(=O)CCc1ccccc1)B(O)O | 2.1 | – | 14000 | 18 | –
8 | CN(CC(=O)N[C@@H](CCCN=C(N)N)B(O)O)C(=O)CCc1ccccc1 | 0.16 | 51 | 460 | 0.61 | –
9 | CN(CC(=O)N[C@@H](CCC/N=C\N)B(O)O)C(=O)CCc1ccccc1 | 9.1 | 7000 | > 10000 | 21 | –
10 | NCCCC[C@H](NC(=O)CN(CCc1ccccc1)C(=O)CCc1ccccc1)B(O)O | 0.42 | 680 | 170 | 2.5 | –

Continued, values first:

Row | Ki [1] [nM] | Ki [2] [nM] | Ki [3] [nM] | Ki [4] [nM] | IC50 [5] [nM] | Compound
11 | 0.69 | 750 | 160 | 1.1 | – | NCCCC[C@H](NC(=O)CN(C(=O)CCc1ccccc1)C1CC1)B(O)O
12 | 1.71 | 3800 | 250 | 2.8 | – | CN(CC(=O)N[C@@H](CCCCN)B(O)O)C(=O)CCc1ccccc1
13 | 5.4 | – | – | – | – | CN(CC(=O)N[C@@H](CCCCN)B(O)O)C(=O)CCCc1ccccc1
14 | 1.6 | 3370 | 140 | 3.8 | – | CC(C)N(CC(=O)N[C@@H](CCCCN)B(O)O)C(=O)CCc1ccccc1
15 | 4.9 | 1100 | 250 | 8.4 | – | NCCCC[C@H](NC(=O)CN(C(=O)CCc1ccccc1)C1CCCCC1)B(O)O
